Test results as given in ChEMBL document CHEMBL1201862, “PubChem BioAssay data set” (2004).
“And” between values parts separate entries of the source, which are not always exact repeats. Identical values can stand only once. Counter-ions that a name gives are not always drawn. One block for each molecule: values may come before it. The source made the active and inactive calls.

Tests used:
[1] = molecular target: T1, Voltage-gated N-type calcium channel alpha-1B subunit/Amyloid beta A4 precursor protein-binding family A member 1 (Homo sapiens, UniProt Q00975+Q02410); type: protein assay
T1 sequence (Q00975 whole entry): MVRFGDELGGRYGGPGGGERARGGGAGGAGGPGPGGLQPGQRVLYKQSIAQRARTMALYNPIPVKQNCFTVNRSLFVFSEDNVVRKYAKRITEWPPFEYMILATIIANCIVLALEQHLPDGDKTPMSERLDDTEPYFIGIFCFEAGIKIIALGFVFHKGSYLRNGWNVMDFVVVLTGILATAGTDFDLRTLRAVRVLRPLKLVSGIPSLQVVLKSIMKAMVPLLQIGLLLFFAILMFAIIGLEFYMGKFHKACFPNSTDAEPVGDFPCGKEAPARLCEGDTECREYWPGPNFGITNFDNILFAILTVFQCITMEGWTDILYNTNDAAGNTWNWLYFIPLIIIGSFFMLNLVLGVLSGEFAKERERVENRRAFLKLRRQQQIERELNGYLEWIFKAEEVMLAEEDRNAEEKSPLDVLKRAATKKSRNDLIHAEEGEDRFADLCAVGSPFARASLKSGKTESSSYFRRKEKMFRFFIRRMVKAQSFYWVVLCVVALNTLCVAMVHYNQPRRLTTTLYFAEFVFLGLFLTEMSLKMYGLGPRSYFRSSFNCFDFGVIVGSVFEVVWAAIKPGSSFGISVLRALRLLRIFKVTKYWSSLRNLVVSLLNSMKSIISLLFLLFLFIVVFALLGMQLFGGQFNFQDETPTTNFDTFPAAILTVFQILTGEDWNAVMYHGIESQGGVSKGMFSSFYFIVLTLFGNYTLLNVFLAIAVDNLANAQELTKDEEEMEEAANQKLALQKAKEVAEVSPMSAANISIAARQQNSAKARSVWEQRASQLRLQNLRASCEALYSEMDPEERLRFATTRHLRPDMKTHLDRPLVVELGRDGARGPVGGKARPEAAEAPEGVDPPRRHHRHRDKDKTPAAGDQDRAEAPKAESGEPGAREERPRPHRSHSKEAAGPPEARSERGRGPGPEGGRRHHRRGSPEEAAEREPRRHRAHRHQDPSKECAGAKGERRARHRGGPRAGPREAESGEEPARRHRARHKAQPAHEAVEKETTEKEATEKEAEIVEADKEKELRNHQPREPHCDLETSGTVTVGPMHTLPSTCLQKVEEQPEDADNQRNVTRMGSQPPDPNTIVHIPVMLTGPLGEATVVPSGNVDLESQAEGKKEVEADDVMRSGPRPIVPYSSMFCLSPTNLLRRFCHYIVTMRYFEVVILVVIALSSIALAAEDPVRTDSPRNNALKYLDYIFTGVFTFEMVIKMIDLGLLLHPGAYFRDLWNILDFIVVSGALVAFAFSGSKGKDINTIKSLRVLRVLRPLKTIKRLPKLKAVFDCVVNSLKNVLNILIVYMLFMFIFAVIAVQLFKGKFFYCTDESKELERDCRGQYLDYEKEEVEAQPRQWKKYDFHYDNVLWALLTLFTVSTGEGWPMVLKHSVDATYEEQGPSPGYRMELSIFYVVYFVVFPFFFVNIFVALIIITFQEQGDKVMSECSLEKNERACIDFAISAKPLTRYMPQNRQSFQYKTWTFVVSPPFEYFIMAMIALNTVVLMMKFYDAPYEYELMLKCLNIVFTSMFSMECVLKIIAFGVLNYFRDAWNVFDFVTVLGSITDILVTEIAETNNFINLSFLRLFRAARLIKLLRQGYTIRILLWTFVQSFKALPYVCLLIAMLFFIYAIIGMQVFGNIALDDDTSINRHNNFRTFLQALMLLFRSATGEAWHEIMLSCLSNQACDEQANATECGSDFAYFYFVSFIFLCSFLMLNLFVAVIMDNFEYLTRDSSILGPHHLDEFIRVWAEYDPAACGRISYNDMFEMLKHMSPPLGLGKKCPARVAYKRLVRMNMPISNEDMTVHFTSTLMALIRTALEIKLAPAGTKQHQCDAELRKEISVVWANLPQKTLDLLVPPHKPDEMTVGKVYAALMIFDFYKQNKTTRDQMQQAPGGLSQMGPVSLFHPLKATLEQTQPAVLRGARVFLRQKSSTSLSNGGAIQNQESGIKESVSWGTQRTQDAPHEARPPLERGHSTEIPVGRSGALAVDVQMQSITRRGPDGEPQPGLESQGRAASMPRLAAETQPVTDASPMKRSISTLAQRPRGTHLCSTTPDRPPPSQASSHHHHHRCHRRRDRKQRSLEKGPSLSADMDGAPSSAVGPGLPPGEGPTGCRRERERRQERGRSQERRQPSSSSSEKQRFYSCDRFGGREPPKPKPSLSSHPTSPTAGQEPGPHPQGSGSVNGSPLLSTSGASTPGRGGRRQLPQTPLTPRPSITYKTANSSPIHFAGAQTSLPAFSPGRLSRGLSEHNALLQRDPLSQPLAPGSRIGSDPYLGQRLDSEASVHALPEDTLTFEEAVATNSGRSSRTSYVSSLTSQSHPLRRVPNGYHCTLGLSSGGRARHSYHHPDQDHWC
T1 sequence (Q02410 whole entry): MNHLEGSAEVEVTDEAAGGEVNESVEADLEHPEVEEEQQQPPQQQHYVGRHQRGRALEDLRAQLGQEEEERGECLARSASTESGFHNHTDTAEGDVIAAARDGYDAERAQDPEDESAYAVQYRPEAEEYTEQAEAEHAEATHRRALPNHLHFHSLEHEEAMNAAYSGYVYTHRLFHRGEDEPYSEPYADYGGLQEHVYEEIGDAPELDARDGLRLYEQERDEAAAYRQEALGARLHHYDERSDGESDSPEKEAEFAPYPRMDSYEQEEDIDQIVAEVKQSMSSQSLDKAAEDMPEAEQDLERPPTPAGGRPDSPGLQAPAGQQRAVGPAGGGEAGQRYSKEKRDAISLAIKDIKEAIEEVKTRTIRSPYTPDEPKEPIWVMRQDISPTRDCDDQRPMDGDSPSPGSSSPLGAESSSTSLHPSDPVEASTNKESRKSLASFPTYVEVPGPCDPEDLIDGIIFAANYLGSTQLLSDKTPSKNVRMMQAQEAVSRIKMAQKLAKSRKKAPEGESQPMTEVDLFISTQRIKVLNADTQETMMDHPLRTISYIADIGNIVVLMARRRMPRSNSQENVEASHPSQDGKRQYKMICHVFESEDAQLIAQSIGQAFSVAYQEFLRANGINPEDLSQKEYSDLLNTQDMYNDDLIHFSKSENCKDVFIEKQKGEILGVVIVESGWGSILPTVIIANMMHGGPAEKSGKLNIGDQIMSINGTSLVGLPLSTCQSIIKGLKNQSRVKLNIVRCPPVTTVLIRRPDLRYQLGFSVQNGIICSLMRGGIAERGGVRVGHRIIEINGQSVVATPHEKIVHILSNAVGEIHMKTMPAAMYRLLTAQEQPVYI

[2] = molecular target: T1, Voltage-gated N-type calcium channel alpha-1B subunit/Amyloid beta A4 precursor protein-binding family A member 1; type: protein assay; remark: listed apart in the source
[3] = molecular target: T2, Tyrosine-protein phosphatase non-receptor type 7 (Homo sapiens, UniProt P35236); assay: redox-active compounds inhibiting HePTP phosphatase – biochemical, fluorescence, mechanism study (AID 2068); type: functional
T2 sequence (P35236 whole entry): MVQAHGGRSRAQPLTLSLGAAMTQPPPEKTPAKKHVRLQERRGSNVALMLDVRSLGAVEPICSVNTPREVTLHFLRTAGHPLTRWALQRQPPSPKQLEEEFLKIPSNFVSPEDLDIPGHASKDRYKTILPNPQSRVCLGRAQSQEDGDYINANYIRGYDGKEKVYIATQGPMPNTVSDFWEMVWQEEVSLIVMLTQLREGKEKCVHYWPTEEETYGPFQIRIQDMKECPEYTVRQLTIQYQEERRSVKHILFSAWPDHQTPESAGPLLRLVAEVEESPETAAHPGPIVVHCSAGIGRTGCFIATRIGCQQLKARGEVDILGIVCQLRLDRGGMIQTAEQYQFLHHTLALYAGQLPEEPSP

[4] = molecular target: Eukaryotic translation initiation factor 4E (Mus musculus, UniProt P63073); assay: blockers of eIF4G binding by eIF4E – biochemical, TR-FRET, dose response (AID 855); type: functional;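 also: potency for disrupting eIF4E binding to eIF4GI seen as loss of FRET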
[5] = molecular target: Glutathione-S-transferase (Schistosoma japonicum, UniProt Q26513); assay: GST-antibody interaction or FRET quenching – biochemical, TR-FRET, artefact control for Vif-APOBEC3G degradation inhibitor project, dose response (AID 1117362); type: functional
[6] = molecular target: T3, Short transient receptor potential channel 4 (Mus musculus, UniProt Q9QUQ5); assay: potentiation of DAMGO-evoked TRPC4 calcium signal – cell-based, HEK293 TRPC4/mu-opioid, Fluo-4 calcium, EC20 DAMGO, dose response (AID 434941); type: functional
T3 sequence (Q9QUQ5 whole entry): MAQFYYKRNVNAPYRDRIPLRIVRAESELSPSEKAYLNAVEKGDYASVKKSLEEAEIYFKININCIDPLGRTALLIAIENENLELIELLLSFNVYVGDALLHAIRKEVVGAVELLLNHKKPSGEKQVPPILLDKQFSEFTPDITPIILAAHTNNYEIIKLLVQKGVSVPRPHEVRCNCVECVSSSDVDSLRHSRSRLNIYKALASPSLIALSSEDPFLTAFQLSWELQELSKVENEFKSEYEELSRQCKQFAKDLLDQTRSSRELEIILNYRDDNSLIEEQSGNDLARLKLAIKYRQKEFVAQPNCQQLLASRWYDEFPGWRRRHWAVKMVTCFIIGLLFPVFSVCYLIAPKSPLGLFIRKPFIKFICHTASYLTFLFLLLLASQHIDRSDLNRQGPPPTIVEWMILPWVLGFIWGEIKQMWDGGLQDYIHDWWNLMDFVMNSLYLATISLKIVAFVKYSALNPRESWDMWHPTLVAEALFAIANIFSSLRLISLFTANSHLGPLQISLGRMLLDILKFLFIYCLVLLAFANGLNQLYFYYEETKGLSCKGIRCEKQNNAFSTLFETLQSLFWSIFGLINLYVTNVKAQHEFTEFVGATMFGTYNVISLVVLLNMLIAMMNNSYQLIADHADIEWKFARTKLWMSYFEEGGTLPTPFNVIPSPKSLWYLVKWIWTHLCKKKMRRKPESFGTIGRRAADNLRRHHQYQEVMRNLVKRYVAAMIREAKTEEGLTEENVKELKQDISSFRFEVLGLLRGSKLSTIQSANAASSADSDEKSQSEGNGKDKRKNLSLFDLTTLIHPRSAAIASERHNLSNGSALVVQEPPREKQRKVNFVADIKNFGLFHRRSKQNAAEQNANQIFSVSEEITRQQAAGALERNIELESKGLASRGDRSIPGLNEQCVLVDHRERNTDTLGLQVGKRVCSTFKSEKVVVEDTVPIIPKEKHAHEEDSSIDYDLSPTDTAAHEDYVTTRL

[7] = Luminescence Cell-Based/Microorganism Confirmation at Dose of Inhibitors of Trypanosoma cruzi Infection. [Related pubchem assays: 1885, 1968 ]; type: functional
[8] = Luminescence Cell-Based Secondary HTS screen to identify cytotoxic compounds of NIH3T3 cells. [Related pubchem assays: 1885, 1968 ]; type: functional
[9] = NIH/3T3 cell viability loss – mouse embryonic fibroblasts, dry powder, set 2, cytotoxicity control, dose response (AID 493247); type: functional, cell-based; details: Fibroblast
Trypanosoma cruzi = assay: anti-trypanosomal activity in host cells – cell-based, plate reader, dry powder, set 3, dose response (AID 493197); type: functional
[10] = molecular target: T4, Mannose-6-phosphate isomerase (Homo sapiens, UniProt P34949); assay: phosphomannose isomerase inhibition – biochemical, fluorescence intensity, confirmation (AID 1535)
T4 sequence (P34949 whole entry): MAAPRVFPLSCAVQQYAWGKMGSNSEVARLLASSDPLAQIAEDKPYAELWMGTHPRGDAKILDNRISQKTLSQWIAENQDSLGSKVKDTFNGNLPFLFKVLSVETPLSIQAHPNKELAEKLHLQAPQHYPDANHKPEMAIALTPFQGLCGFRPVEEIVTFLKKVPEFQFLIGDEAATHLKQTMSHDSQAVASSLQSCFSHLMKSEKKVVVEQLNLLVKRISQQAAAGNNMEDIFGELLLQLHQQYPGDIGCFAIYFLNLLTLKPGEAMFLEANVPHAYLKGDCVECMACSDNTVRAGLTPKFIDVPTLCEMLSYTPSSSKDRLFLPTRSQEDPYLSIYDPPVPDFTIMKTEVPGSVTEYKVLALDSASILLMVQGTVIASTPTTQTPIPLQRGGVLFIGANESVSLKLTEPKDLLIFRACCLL

Hexokinase = Hexokinase (Trypanosoma brucei, UniProt Q38C41); assay: Confirmation assay for inhibitors of Trypanosoma brucei hexokinase 1-Analogue-first series. [Related pubchem assays (depositor defined):AID1430, AID1632, AID2516, AID2560, AID2579, AID2600, AID449725, AID492951]; type: functional
Phosphomannomutase 2 = molecular target: T5, Phosphomannomutase 2 (Homo sapiens, UniProt O15305); assay: Counter screen SAR assay for PMM2 inhibitors via a fluorescence intensity assay. [Related pubchem assays (depositor defined):AID1545, AID1574]
T5 sequence (O15305 whole entry): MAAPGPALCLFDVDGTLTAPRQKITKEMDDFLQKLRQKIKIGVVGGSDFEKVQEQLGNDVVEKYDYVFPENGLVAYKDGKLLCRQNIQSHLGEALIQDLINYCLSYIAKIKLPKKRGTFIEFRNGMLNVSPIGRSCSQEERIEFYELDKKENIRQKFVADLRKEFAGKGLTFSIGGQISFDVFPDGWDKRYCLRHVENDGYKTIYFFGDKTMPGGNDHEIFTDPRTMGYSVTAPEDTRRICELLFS

Mu-type opioid receptor = Mu-type opioid receptor (Homo sapiens, UniProt P35372); assay: SAR Analysis of Antagonists of the MOR Receptor using an Image-Based Assay - Set 3. [Related pubchem assays (depositor defined):AID1777, AID1785, AID1786, AID1966, AID2133, AID2136, AID2284, AID2285, AID2420]; type: functional
[11] = molecular target: Delta-type opioid receptor (Homo sapiens, UniProt P41143); assay: SAR Analysis of Antagonists of the DOR Receptor using an Image-Based Assay - Set 3. [Related pubchem assays (depositor defined):AID1777, AID1785]; type: functional;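 also: U2OS cells expressing DOR1 and beta-arrestin GFP stimulated with 100 nM SNC80; imaging of GFP-tagged beta-arrestin moving into spots after receptor activation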
[12] = molecular target: T6, Kappa-type opioid receptor (Homo sapiens, UniProt P41145); assay: SAR analysis of small molecule antagonists of the kappa opioid receptor via a luminescent beta-arrestin assay - Set 3. [Related pubchem assays (depositor defined):AID1777, AID1778, AID1785, AID1786, AID1966, AID2133, AID2136, AID2285, AID2495]; type: functional
T6 sequence (P41145 whole entry): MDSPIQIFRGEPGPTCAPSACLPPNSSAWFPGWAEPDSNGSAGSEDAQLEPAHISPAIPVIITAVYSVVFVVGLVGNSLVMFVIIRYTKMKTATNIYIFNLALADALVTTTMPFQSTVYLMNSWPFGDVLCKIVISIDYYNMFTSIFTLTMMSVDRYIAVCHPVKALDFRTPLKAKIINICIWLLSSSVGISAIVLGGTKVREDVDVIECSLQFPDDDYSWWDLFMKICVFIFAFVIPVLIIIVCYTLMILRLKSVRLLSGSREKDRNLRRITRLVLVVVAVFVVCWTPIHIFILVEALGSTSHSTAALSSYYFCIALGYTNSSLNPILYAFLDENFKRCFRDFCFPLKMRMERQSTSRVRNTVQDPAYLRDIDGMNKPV

[13] = molecular target: T6, Kappa-type opioid receptor; assay: SAR analysis of Antagonists of the Kappa Opioid Receptor (KOR) using an Image-Based Assay - Set 3. [Related pubchem assays (depositor defined):AID1777, AID1785]; type: functional
[14] = NIH-3T3 fibroblast cytotoxicity, dose response, cytotoxicity control, cell-based, fluorescence, Alamar Blue, secondary assay (AID 2327); type: functional;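 also: NIH-3T3 mouse fibroblasts cultured with fluconazole at 8 µg/mL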
SUMO-activating enzyme [15] = molecular target: T7, SUMO-activating enzyme (Homo sapiens, UniProt Q9UBT2); assay: blockers of UBC9-mediated SUMO conjugation – biochemical, AlphaScreen, SUMOylation inhibitor project, confirmation (AID 2018); type: functional
T7 sequence (Q9UBE0 whole entry): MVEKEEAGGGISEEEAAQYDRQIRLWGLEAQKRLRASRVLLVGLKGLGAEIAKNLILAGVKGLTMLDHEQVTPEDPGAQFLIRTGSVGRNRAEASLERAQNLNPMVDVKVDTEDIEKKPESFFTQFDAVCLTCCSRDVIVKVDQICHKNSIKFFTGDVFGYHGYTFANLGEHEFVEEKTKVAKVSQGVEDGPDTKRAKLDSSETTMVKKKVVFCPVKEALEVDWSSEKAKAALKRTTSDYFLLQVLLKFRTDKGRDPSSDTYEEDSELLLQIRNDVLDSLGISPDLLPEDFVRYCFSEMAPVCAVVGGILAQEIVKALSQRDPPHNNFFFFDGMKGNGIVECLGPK
T7 sequence (Q9UBT2 whole entry): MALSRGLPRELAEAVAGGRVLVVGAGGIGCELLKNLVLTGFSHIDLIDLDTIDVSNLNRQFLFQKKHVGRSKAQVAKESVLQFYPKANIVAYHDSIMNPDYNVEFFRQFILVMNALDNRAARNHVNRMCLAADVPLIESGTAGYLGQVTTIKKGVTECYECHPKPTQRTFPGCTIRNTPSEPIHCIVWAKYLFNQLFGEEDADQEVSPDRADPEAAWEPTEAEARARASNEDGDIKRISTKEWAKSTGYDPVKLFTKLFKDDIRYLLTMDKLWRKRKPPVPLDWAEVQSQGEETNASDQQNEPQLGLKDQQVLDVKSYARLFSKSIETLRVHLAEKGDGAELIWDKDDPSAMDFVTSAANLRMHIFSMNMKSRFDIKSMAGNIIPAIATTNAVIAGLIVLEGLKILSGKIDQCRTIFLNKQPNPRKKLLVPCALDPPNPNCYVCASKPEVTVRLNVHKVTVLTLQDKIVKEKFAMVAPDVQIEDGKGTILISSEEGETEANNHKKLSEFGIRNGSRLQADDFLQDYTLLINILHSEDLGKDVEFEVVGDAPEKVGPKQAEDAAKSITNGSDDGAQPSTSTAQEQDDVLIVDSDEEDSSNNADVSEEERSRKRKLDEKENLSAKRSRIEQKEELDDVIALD

[16] = fluconazole-exposed Candida albicans growth modulators – fluorescence, retest, confirmation (AID 2467); type: functional, cell-based
SUMO-activating enzyme [17] = molecular target: T7, SUMO-activating enzyme; assay: blockers of SAE1/SAE2–UBC9 SUMO transfer – biochemical, HTRF, uHTS, primary screen (AID 2006); type: protein-complex assay
[18] = molecular target: Intestinal-type alkaline phosphatase (Mus musculus, UniProt P24822); assay: PubChem AID 488875; type: functional
[19] = molecular target: T8, Intestinal-type alkaline phosphatase (Homo sapiens, UniProt P09923); assay: human intestinal alkaline phosphatase activators, dose response, biochemical, luminescence, uHTS hits (AID 463120); type: functional
T8 sequence (P09923 whole entry): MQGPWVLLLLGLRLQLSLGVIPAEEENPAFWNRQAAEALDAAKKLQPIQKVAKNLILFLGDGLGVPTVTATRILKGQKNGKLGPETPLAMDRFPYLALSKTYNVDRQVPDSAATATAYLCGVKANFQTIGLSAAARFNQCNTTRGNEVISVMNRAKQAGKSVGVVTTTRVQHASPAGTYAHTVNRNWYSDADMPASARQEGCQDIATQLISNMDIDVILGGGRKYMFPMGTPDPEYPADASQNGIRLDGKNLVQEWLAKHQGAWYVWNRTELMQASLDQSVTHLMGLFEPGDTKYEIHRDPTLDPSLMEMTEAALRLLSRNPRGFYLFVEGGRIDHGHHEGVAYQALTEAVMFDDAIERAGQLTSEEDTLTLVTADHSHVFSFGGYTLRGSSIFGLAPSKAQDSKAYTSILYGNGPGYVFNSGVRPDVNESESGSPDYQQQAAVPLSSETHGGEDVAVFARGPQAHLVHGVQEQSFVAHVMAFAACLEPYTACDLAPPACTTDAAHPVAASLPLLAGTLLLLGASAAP

[20] = molecular target: T8, Intestinal-type alkaline phosphatase; assay: activation of human intestinal alkaline phosphatase – biochemical, luminescent, uHTS hits, set 2, dose response (AID 488817); type: functional;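 also: potency of activators that raise enzyme activity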
[21] = molecular target: T9, Alkaline phosphatase, tissue-nonspecific isozyme (Homo sapiens, UniProt P05186); assay: activation of tissue-nonspecific alkaline phosphatase – biochemical, TNAP isozyme, human IAP uHTS hits, selectivity assay for human IAP activator project, dose response (AID 488886); type: functional;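 also: potency of compounds raising TNAP activity as a selectivity check on IAP activators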
T9 sequence (P05186 whole entry): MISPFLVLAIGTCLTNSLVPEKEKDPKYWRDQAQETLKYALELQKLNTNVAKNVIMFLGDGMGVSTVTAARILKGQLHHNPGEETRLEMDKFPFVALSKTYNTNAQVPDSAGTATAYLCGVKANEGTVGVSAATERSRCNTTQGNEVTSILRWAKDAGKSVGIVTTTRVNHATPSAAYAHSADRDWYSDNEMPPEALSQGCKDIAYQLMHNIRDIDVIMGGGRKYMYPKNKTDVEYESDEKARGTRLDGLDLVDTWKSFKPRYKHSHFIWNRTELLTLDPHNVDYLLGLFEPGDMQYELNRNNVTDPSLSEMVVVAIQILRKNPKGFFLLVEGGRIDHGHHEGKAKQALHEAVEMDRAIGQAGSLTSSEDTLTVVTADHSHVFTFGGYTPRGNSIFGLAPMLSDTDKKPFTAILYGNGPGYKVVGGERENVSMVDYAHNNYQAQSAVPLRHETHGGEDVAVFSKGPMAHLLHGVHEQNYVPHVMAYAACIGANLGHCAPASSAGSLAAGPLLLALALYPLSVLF

[22] = molecular target: G-protein coupled receptor 55 (Homo sapiens, UniProt Q9Y2T6); assay: inhibition of LPI-stimulated GPR55 beta-arrestin translocation – imaging, U2OS, beta-arrestin-GFP, LPI agonist, primary screen (AID 2013); type: functional;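 also: antagonist potency measured as reduced agonist-driven arrestin aggregation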

SMILES: CN(Cc1ccccc1)C(=O)C1CCCN(Cc2cccc(Cl)c2)C1 (stereo unspecified)
EC50 [7]: 231 nM (active)
EC50 [8]: > 195 µM (not active)
AC50 [9]: 70.3 µM (active)
AC50 (Trypanosoma cruzi): 570 nM (active)

SMILES: COc1cccc(-n2sc3ccccc3c2=O)c1
IC50 [10]: 4.19 µM (active)
IC50 (Hexokinase): 2.52 µM (active)
IC50 (Phosphomannomutase 2): 14.3 µM (active)

SMILES: COc1cccc(/C=N\NC(=O)C2=NNC(=O)C2C)c1O (stereo unspecified)
EC50 [14]: > 160 µM (inconclusive)
IC50 (SUMO-activating enzyme [15]): 5.18 µM (active)
EC50 [16]: > 38 µM (not active)
IC50 (SUMO-activating enzyme [17]): 18.3 µM (active)
EC50 [18]: > 100 µM (inactive)
EC50 [19]: 6.53 µM (active)
EC50 [20]: 9.07 µM (active)
EC50 [21]: 8.88 µM (active)

Further lines, results first:

IC50 [1]: 20 µM (active)
IC50 [2]: 507 nM (active)
IC50 [3]: 841 nM (active) and 537 nM (active)
IC50 [4]: 9.25 µM (active)
IC50 [5]: > 100 µM (active)
SMILES: O=C(NCCCO)Nc1ccc2nc(-c3ccco3)c(-c3ccco3)nc2c1

EC50 [6]: 5.96 µM (active)
SMILES: CCOc1ccc(-n2c(SCC(=O)O)nc3sc4c(c3c2=O)CCCC4)cc1

IC50 (Mu-type opioid receptor): 10.3 µM (inactive)
IC50 [11]: > 32 µM (inactive)
IC50 [12]: 5.57 µM (active)
IC50 [13]: 2.93 µM (active)
SMILES: CCN(CCNC(=O)c1ccc(CNS(=O)(=O)c2ccc(C)cc2)cc1)Cc1ccccc1

IC50 [22]: 3.1 µM (active)
SMILES: CC(NCCC(c1ccccc1)c1ccccc1)c1ccccc1 (stereo unspecified) [FENDILINE HYDROCHLORIDE]
